The refractive index is the speed of light in vacuum divided by its phase velocity in the sample.

The nature of this series: refractive index (Na D-line) (dimensionless). Particulars: 293.1 K; 101.33 kPa; Liquid; Standard Abbe refractometry.

± gives the expanded uncertainty stated by the source.

With `CN1CCCC1=O` [N-methylpyrrolidone], the refractive index was 1.4686 ± 0.0012.

Values taken from the NIST ThermoML archive (doi:10.1021/je049706p).
